Measurements from patent US4175125A, “Method for treating methicillin resistant staphylococcus aureus” (Eli Lilly and Company, priority 1978, dated 1979).
In brackets after ≈: the same amount, converted by molar mass. Where two headings read alike, the source gives them in different places.

Tests used:
Format in all cases: cell-based
[1] = test system: Staphylococcus aureus cultures; experiment: Agar dilution susceptibility test, phenylthioacetyl cephalosporins vs methicillin resistant S. aureus (Example 9); details: Staphylococcus aureus
From the text: This example compares the antibiotic activities of three known compounds, methicillin, cephalothin, and cephaloridine, with three compounds from the above examples, in terms of minimum inhibitory concentration (MIC) values in microgram/milliliter units against various isolates of Staphylococcus aureus cultures. The culture numbers and the procedures used to obtain the reported data are disclosed by W. E. Wick and D. A. Preston in their article "Heterogeneous Methicillin-Resistant Staphylococcus Aureus" which appeared in Progress in Antimicrobial And Anticancer Chemotherapy, Proceedings of the 6th International Congress of Chemotherapy, Volume, 1, U. of Tokyo Press, Tokyo, (1970). In these agardilution susceptibility tests, the inocula were diluted to 10^3 bacteria per spot. Cultures 3055 (benzylpenicillin sensitive) and H232 (benzylpenicillin-resistant) are controls. The remaining cultures are methicillin-resistant, and, except for 3136, are clinical isolates. Culture 3136 is a 4th transfer laboratory selected mutant.

[2] = test system: Staphylococcus aureus cultures; experiment: Broth dilution MIC in trypticase soy broth, low and high NaCl (Example 10); details: for MIC: Staphylococcus aureus, TSB
Description: This example compares the antibiotic activities of methicillin, cephalothin and cephaloridine with the compounds of Examples 1, 2 and 3, in broth dilution tests. The MIC values, in μg/ml., are against the same Staphylococcus aureus cultures described in Example 9, except that in this example the cultures were grown in trypticase soy broth (TSB). Growing the cultures in two broth cultures, one having a low (0.5 percent) sodium chloride content and one having a high (5.0 percent) sodium chloride content is said to assist in identifying the methicillin-resistant cultures from those which are not methicillin-resistant. […] See Chabbert, Y. A., 1967 Postgrad. Med. J., 43 (suppl); 40-46. One expects that similar changes in MIC values for this type of culture to other β-lactam antibiotics, e.g., various penicillins and cephalosporins, to have similar implications. […] That is, methicillin-resistant S.aureus cultures are susceptible to the cephalosporin antibiotics used in this invention.

[3] = test system: Staphylococcus aureus cultures; experiment: Modified Bauer-Kirby Disc Susceptibility Test (Example 11); set-up: zone of inhibition: dose or concentration left out as unconfirmed; details: for zone of inhibition: Staphylococcus aureus; for Change 37°-30°: 30 mg Disc
Description: This example exemplifies the antibiotic activity of 7-[2'-(3"-chloro-4"-fluorophenylthio)acetamido]cephalosporanic acid, a water soluble compound, described in Example 8, against various Staphylococcus aureus cultures, in a modified Bauer-Kirby Disc Susceptibility Test (Bauer, A. W., W. M. M. Kirby, J. C. Sherris, and M. Turck, 1966, Amer. J. Clin. Pathol. 45:493-496). In this test the cultures were incubated at both 37° C. or 30° C. […] 16, 1968, the heterogeneity of methicilllin-resistant S. aureus is manifested by incubation at 30° C.

[4] = culture 3130, table part marked b
[5] = culture 3130, table part marked c
[6] = culture 3131, table part marked b
[7] = culture 3131, table part marked c
[8] = culture 3134, table part marked b
[9] = culture 3134, table part marked c
[10] = culture 3135, table part marked b
[11] = culture 3135, table part marked c
[12] = culture 3136, table part marked b
[13] = culture 3136, table part marked c
[14] = culture 3137, table part marked b
[15] = culture 3137, table part marked c
[16] = culture 3138, table part marked b
[17] = culture 3138, table part marked c
[18] = culture 3139, table part marked b
[19] = culture 3139, table part marked c
[20] = culture (Seattle) 966, table part marked b
[21] = culture (Seattle) 966, table part marked c
[22] = culture S61, table part marked b
[23] = culture S61, table part marked c

For `CC(=O)OCC1=C(C(=O)O)N2C(=O)[C@@H](NC(=O)Cc3cccs3)[C@H]2SC1` [Cephalothin, cephalothin, reference compound], the MIC ([1]; culture 3055 (control, benzylpenicillin sensitive), table part marked b) was less than 0.25 mg/L, the MIC ([1]; culture 3055 (control, benzylpenicillin sensitive), table part marked c) was less than 0.25 mg/L and the MIC [1, 4] was 8 mg/L (≈ 20.2 µM). The MIC [1, 5] was 64 mg/L (≈ 161 µM), the MIC [1, 6] was 1 mg/L (≈ 2.52 µM) and the MIC [1, 7] was 32 mg/L (≈ 80.7 µM). For the same molecule, the MIC ([1]; culture 3132, table part marked b) was 2 mg/L (≈ 5.04 µM), the MIC ([1]; culture 3132, table part marked c) was 16 mg/L (≈ 40.4 µM) and the MIC ([1]; culture 3133, table part marked b) was 2 mg/L (≈ 5.04 µM). The MIC ([1]; culture 3133, table part marked c) was 64 mg/L (≈ 161 µM), the MIC [1, 8] was 8 mg/L (≈ 20.2 µM) and the MIC [1, 9] was 64 mg/L (≈ 161 µM). For the same molecule, the MIC [1, 10] was 2 mg/L (≈ 5.04 µM), the MIC [1, 11] was 32 mg/L (≈ 80.7 µM) and the MIC [1, 12] was 2 mg/L (≈ 5.04 µM). For the same molecule, the MIC [1, 13] was 32 mg/L (≈ 80.7 µM), the MIC [1, 14] was 64 mg/L (≈ 161 µM) and the MIC [1, 15] was 128 mg/L (≈ 323 µM). For the same molecule, the MIC [1, 16] was 8 mg/L (≈ 20.2 µM), the MIC [1, 17] was 64 mg/L (≈ 161 µM) and the MIC [1, 18] was 1 mg/L (≈ 2.52 µM). The MIC [1, 19] was 32 mg/L (≈ 80.7 µM), the MIC [1, 20] was 1 mg/L (≈ 2.52 µM) and the MIC [1, 21] was 32 mg/L (≈ 80.7 µM). It also gave an MIC ([1]; culture H232 (control, benzylpenicillin-resistant), table part marked b) of less than 0.25 mg/L, an MIC ([1]; culture H232 (control, benzylpenicillin-resistant), table part marked c) of less than 0.25 mg/L and an MIC ([1]; culture Kavarmark 1138501, table part marked b) of 2 mg/L (≈ 5.04 µM). For the same molecule, the MIC ([1]; culture Kavarmark 1138501, table part marked c) was 32 mg/L (≈ 80.7 µM), the MIC [1, 22] was 2 mg/L (≈ 5.04 µM) and the MIC [1, 23] was 64 mg/L (≈ 161 µM). For the same molecule, the “difference in MIC values in low versus high salt TSB cultures” value ([2]; 0.5 percent vs 5.0 percent NaCl, methicillin-resistant S. aureus) was “fairly wide difference (increase in MIC value from 2 to 64)”, the MIC ([2]; culture 3055 (control), table part marked b) was 0.5 mg/L (≈ 1.26 µM) and the MIC ([2]; culture 3055 (control), table part marked c) was 0.5 mg/L (≈ 1.26 µM). The MIC [2, 4] was 8 mg/L (≈ 20.2 µM), the MIC [2, 5] was 64 mg/L (≈ 161 µM) and the MIC [2, 6] was 2 mg/L (≈ 5.04 µM). For the same molecule, the MIC [2, 7] was 64 mg/L (≈ 161 µM), the MIC ([2]; culture 3132 (first column so headed), table part marked b) was 2 mg/L (≈ 5.04 µM) and the MIC ([2]; culture 3132 (first column so headed), table part marked c) was 64 mg/L (≈ 161 µM). It also gave an MIC ([2]; culture 3132 (second column so headed), table part marked b) of 2 mg/L (≈ 5.04 µM), an MIC ([2]; culture 3132 (second column so headed), table part marked c) of 64 mg/L (≈ 161 µM) and an MIC [2, 8] of 32 mg/L (≈ 80.7 µM). For the same molecule, the MIC [2, 9] was 64 mg/L (≈ 161 µM), the MIC [2, 10] was 2 mg/L (≈ 5.04 µM) and the MIC [2, 11] was 64 mg/L (≈ 161 µM). For the same molecule, the MIC [2, 12] was 2 mg/L (≈ 5.04 µM), the MIC [2, 13] was 64 mg/L (≈ 161 µM) and the MIC [2, 14] was 64 mg/L (≈ 161 µM). For the same molecule, the MIC [2, 15] was 128 mg/L (≈ 323 µM), the MIC [2, 16] was 32 mg/L (≈ 80.7 µM) and the MIC [2, 17] was 64 mg/L (≈ 161 µM). For the same molecule, the MIC [2, 18] was 4 mg/L (≈ 10.1 µM), the MIC [2, 19] was 32 mg/L (≈ 80.7 µM) and the MIC [2, 20] was 2 mg/L (≈ 5.04 µM). It also gave an MIC [2, 21] of 32 mg/L (≈ 80.7 µM), an MIC ([2]; culture H232 (control), table part marked b) of 0.5 mg/L (≈ 1.26 µM) and an MIC ([2]; culture H232 (control), table part marked c) of 0.5 mg/L (≈ 1.26 µM). The MIC ([2]; culture Kavarnick 1138501, table part marked b) was 4 mg/L (≈ 10.1 µM), the MIC ([2]; culture Kavarnick 1138501, table part marked c) was 64 mg/L (≈ 161 µM) and the MIC [2, 22] was 8 mg/L (≈ 20.2 µM). The MIC [2, 23] was 64 mg/L (≈ 161 µM), the MIC ([2]; culture S, table part marked b) was 8 mg/L (≈ 20.2 µM) and the MIC ([2]; culture S, table part marked c) was 64 mg/L (≈ 161 µM). The zone of inhibition ([3]; culture 3055 (penicillin sensitive), 30°, read-out: disc susceptibility (zone) at 30°) was greater than 35 mm, the zone of inhibition ([3]; culture 3055 (penicillin sensitive), 37°, read-out: disc susceptibility (zone) at 37°) was greater than 35 mm and the zone of inhibition ([3]; culture 3074 (methicillin sensitive, penicillinase producing), 30°, read-out: disc susceptibility (zone) at 30°) was 32.1 mm. It also gave a zone of inhibition ([3]; culture 3074 (methicillin sensitive, penicillinase producing), 37°, read-out: disc susceptibility (zone) at 37°) of 31.8 mm, a zone of inhibition ([3]; culture 3125 (methicillin resistant), 30°, read-out: disc susceptibility (zone) at 30°) of 33.8 mm and a zone of inhibition ([3]; culture 3125 (methicillin resistant), 37°, read-out: disc susceptibility (zone) at 37°) of 33.4 mm. The zone of inhibition ([3]; culture 3130 (methicillin resistant), 30°, read-out: disc susceptibility (zone) at 30°) was 20.2 mm, the zone of inhibition ([3]; culture 3130 (methicillin resistant), 37°, read-out: disc susceptibility (zone) at 37°) was 32.8 mm and the zone of inhibition ([3]; culture 3131 (methicillin resistant), 30°, read-out: disc susceptibility (zone) at 30°) was 16.6 mm. The zone of inhibition ([3]; culture 3131 (methicillin resistant), 37°, read-out: disc susceptibility (zone) at 37°) was 29.6 mm, the zone of inhibition ([3]; culture 3132 (methicillin resistant), 30°, read-out: disc susceptibility (zone) at 30°) was 17.6 mm and the zone of inhibition ([3]; culture 3132 (methicillin resistant), 37°, read-out: disc susceptibility (zone) at 37°) was 28.6 mm. It also gave a zone of inhibition ([3]; culture 3133 (methicillin resistant), 30°, read-out: disc susceptibility (zone) at 30°) of 12.8 mm, a zone of inhibition ([3]; culture 3133 (methicillin resistant), 37°, read-out: disc susceptibility (zone) at 37°) of 28.8 mm and a zone of inhibition ([3]; culture 3134 (methicillin resistant), 30°, read-out: disc susceptibility (zone) at 30°) of 12.1 mm. It also gave a zone of inhibition ([3]; culture 3134 (methicillin resistant), 37°, read-out: disc susceptibility (zone) at 37°) of 27.8 mm, a zone of inhibition ([3]; culture 3135 (methicillin resistant), 30°, read-out: disc susceptibility (zone) at 30°) of 11.8 mm and a zone of inhibition ([3]; culture 3135 (methicillin resistant), 37°, read-out: disc susceptibility (zone) at 37°) of 28 mm. The zone of inhibition ([3]; culture 3136 (methicillin resistant), 30°, read-out: disc susceptibility (zone) at 30°) was 20.8 mm, the zone of inhibition ([3]; culture 3136 (methicillin resistant), 37°, read-out: disc susceptibility (zone) at 37°) was 35.6 mm and the zone of inhibition ([3]; culture 3137 (methicillin resistant), 30°, read-out: disc susceptibility (zone) at 30°) was 0 mm. The zone of inhibition ([3]; culture 3137 (methicillin resistant), 37°, read-out: disc susceptibility (zone) at 37°) was 17.8 mm, the zone of inhibition ([3]; culture 3138 (methicillin resistant), 30°, read-out: disc susceptibility (zone) at 30°) was 11.3 mm and the zone of inhibition ([3]; culture 3138 (methicillin resistant), 37°, read-out: disc susceptibility (zone) at 37°) was 26.2 mm. It also gave a zone of inhibition ([3]; culture 3139 (methicillin resistant), 30°, read-out: disc susceptibility (zone) at 30°) of 27 mm, a zone of inhibition ([3]; culture 3139 (methicillin resistant), 37°, read-out: disc susceptibility (zone) at 37°) of 32 mm and a zone of inhibition ([3]; culture 3140 (methicillin resistant), 30°, read-out: disc susceptibility (zone) at 30°) of 10.4 mm. It also gave a zone of inhibition ([3]; culture 3140 (methicillin resistant), 37°, read-out: disc susceptibility (zone) at 37°) of 29.7 mm, a zone of inhibition ([3]; culture H232 (methicillin sensitive, penicillinase producing), 30°, read-out: disc susceptibility (zone) at 30°) of 33.2 mm and a zone of inhibition ([3]; culture H232 (methicillin sensitive, penicillinase producing), 37°, read-out: disc susceptibility (zone) at 37°) of 33.4 mm. The “Change 37°-30°” value ([3]; culture 3074) was “+0.3 mm”, the “Change 37°-30°” value ([3]; culture 3130) was -12.6 mm and the “Change 37°-30°” value ([3]; culture 3131) was -13.0 mm. For the same molecule, the “Change 37°-30°” value ([3]; culture 3132) was -11.0 mm, the “Change 37°-30°” value ([3]; culture 3133) was -16.0 mm and the “Change 37°-30°” value ([3]; culture 3134) was -15.7 mm. For the same molecule, the “Change 37°-30°” value ([3]; culture 3135) was -16.2 mm, the “Change 37°-30°” value ([3]; culture 3136) was -14.8 mm and the “Change 37°-30°” value ([3]; culture 3137) was greater than 17.8 mm. The “Change 37°-30°” value ([3]; culture 3138) was -14.9 mm, the “Change 37°-30°” value ([3]; culture 3139) was -5.0 mm and the “Change 37°-30°” value ([3]; culture 3140) was -13.3 mm. For the same molecule, the “Change 37°-30°” value ([3]; culture H232) was -0.2 mm.
